Test results reported in patent US9216181B2 (Southwest Research Institute, priority 2011, dated 2015).
Where a name gives a salt, the structure may show the parent alone. Read-outs that look alike come from different tables or passages of the source.

Experiments:
[1] = system: BMP-2; test: BMP-2 fold change of JHU library compounds, confirmed by qPCR; assay type: cell-based, human; settings: JHU library compounds; non-treated = 1.00
From the text: To further verify the technique, a 2T3 mouse pre-osteoblast cell line derived from calvaria courtesy of Dr. Steve Harris, UTHSCSA, was utilized to visually screen the compounds of the BIOMOL library and JHU libraries, purchased from John Hopkins University including 2387 compounds (solution in wells). Specifically, Murine 2T3 were thawed from one frozen cryovial and re-seeded into two T-75 tissue culture flasks grown in Alpha MEM with 10% FBS, Glutamine, and Pen/Strip antibiotics. Cells were incubated in a humidified 37° C. under 5% CO2 for 48 hours or when cells reached 80% confluence. After reaching confluency, the 2T3 were trypsinized and resuspended in pre-warm growth media to a cell density of 5×10^4 cells/mL. Approximately 100 uL of cell suspension was seeded to a 96 well plate to give a final 5,000 cells per well. Plate was incubated overnight at 37° C. and spent media was aspirated and replace with 100 uL of growth media with 5-10 uM of presumptive drug compounds. A set of controls were untreated and treated with 10 uM of Lovastatin to be used as a visual reference morphological screening.
Human mesenchymal stem cells (LONZA, Catalog PT2501) were maintained in Mesenchymal stem cells basal media (MSCBM CAT#PT-3238). Early passage cells were plated in triplicate at 2×10^4 cells/cm^2 using six well tissue culture plates and grown in humidified 5% CO2 at 37° C. for 24 hours. Spent media was replaced by assay media of drugs to be tested in same media as above at 10 μM final concentration. Untreated cells were used as the control group. […] RNA concentration and integrity was assessed by absorbance 260/280 and electrophoresis in 1% Agarose with formaldehyde loading dye. For TaqMan gene expression, cDNA was synthesized from 2 μg of total RNA using the High Capacity cDNA Reverse Transcription Kit (Applied Biosystems, Cat. 4368814). The resulting cDNA were diluted 1:100 for TaqMan and amplified by real-time quantitative PCR. […] A cocktail of universal master mix (Applied Biosystems, 4369016) were prepared individually for both set of primers which contained Taq Polymerase, dNTPs, and buffer. Template cDNA's were added separately to respective individual wells in triplicate samples. The PCR were performed on StepOne Plus Real Time System instrument (Applied Biosystems). The amplification program consisted of 1 cycle of 95° C. with 10 minute hold (hot start) followed by 50 cycles of 95° C. with 15 second annealing hold and 1 minute 60° C. specified acquisition hold. […] Change in gene expression was determined by the expression ΔΔCt relative method.
Included in the tables is the target or common medical use for each compounds.

[2] = system: BMP-2; test: Real time PCR of BMP-2 gene expression in human MSC (Cells-to-Ct); assay type: cell-based; settings: BMP-2 mRNA, hMSC, 5-10 μM, 24 hours, vs untreated
Method: Early passage human mesenchymal stem cells (MSC) were thawed from one frozen cryo-vial and seeded into two T-75 tissue culture flasks and incubated at 37° C. for 48 hours in Alpha MEM with 10% FBS. After three days and one re-feeding, the cells were trypsinized and re-suspended in pre-warmed media at 5×10^4 cells/mL to provide 5,000 cells per well in a 96 well plate and incubated overnight at 37° C. in 5% CO2.
Each well was washed in cold PBS, lysed at room temperature for five minutes, and stop reagent added to each well to stop the lysis reaction. The final lysate was kept cold at 4° C. and used immediately as the RNA template for the reverse transcription cDNA synthesis following the TAQMAN GENE EXPRESSION CELLS TO CT KIT instructions.
The cDNA synthesis was prepared on a separate sterile 96-well PCR plate and performed on the Step One Plus Real Time PCR System instrument (Applied Biosystems) with the programming set at 37° C. for 60 minutes and an inactivation hold of 95° C. for five minutes. The final cDNA reaction was kept cold and used as the template for the TAQMAN GENE Real-Time PCR step following the recommended instructions for TAQMAN GENE EXPRESSION CELLS TO CT KIT assay. […] Template cDNA's were added separately to respective individual wells in replicate samples.
The PCR was performed on the STEPONEPLUS Real-Time System instrument (Applied Biosystems). The amplification program consisted of 1 cycle of 95° C. with 10 minute hold (hot start) and followed by 50 cycles of 95° C. with 15-second annealing hold and 1-minute 60° C. specified acquisition hold.

[3] = system: BMP2; test: Quantitative PCR (TaqMan, ΔΔCt) of BMP2 in human mesenchymal stem cells; assay type: cell-based; settings: for fold induction at 10 µM: Homo sapiens, Mesenchymal stem cells, read-out: q-PCR Fold increase
Method: Human mesenchymal stem cells (LONZA, Catalog PT2501) were maintained in Mesenchymal stem cells basal media (MSCBM CAT#PT-3238). Early passage cells were plated in triplicate at 2×10^4 cells/cm^2 using six well tissue culture plates and grown in humidified 5% CO2 at 37° C. for 24 hours. Spent media was replaced by assay media of drugs to be tested in same media as above at 10 μM final concentration. Untreated cells were used as the control group. Total RNA were prepared using either TRI Reagent (Ambion, Cat. 9738), for subsequent TaqMan gene expression qPCR of BMP2. RNA concentration and integrity was assessed by absorbance 260/280 and electrophoresis in 1% Agarose with formaldehyde loading dye. For TaqMan gene expression, cDNA was synthesized from 2 μg of total RNA using the High Capacity cDNA Reverse Transcription Kit (Applied Biosystems, Cat. 4368814). The resulting cDNA were diluted 1:100 for TaqMan and amplified by real-time quantitative PCR. Gene-specific fluorescent labeled TaqMan primers for FAM-BMP2 (Applied Biosystems, Hs00154192.m1) and TaqMan reference VIC-18S ribosomal RNA (Applied Biosystems, 4310893E) were used to target gene of interest. A cocktail of universal master mix (Applied Biosystems, 4369016) were prepared individually for both set of primers which contained Taq Polymerase, dNTPs, and buffer. Template cDNA's were added separately to respective individual wells in triplicate samples. The PCR were performed on StepOne Plus Real Time System instrument (Applied Biosystems). The amplification program consisted of 1 cycle of 95° C. with 10 minute hold (hot start) followed by 50 cycles of 95° C. with 15 second annealing hold and 1 minute 60° C. specified acquisition hold. The Ct value of endogenous reference gene (i.e. 18 s) was used to control for input RNA and then used to normalize target gene (i.e. BMP2) tested from the same cDNA sample to calculate the Δ Ct, and then calibrated to an internal reference sample. Change in gene expression was determined by the expression ΔΔCt relative method.
18 compounds were confirmed positive by the more stringent qPCR techniques. […] Included in the tables is the target or common medical use for each compounds.

[4] = BMP2 mRNA, hMSC, 10 μM, vs untreated, 18S reference, BIOMOL library (Table 2)
[5] = positive control compounds (Table 1)
[6] = BMP2 mRNA, hMSC, 10 μM, vs untreated, 18S reference, positive control compounds (Table 1)

| SMILES | RT PCR Fold increase ([2]; BIOMOL library (Table 2)) | fold induction at 10 µM [3, 4] | RT PCR Fold increase [2, 5] | fold induction at 10 µM [3, 6] | other results |
| --- | --- | --- | --- | --- | --- |
| COC(=O)c1ccc(O)c2nc3c(C=O)c(O)cc(O)c3nc12 [Lomofungin] | 32.6 fold | 14.2 |  |  | Fold change (BMP-2) [1]: 26.00 fold |
| CC[C@]1(O)C[C@H]2CN(CCc3c([nH]c4ccccc34)[C@@](C(=O)OC)(c3cc4c(cc3OC)N(C=O)[C@H]3[C@@](O)(C(=O)OC)[C@H](OC(C)=O)[C@]5(CC)C=CCN6CC[C@]43[C@@H]65)C2)C1 [Vincristine sulfate] |  |  | 10.8 fold | 1.8 | Fold change (BMP-2) [1]: 57.00 fold |
| CC[C@]1(O)C[C@@H]2CN(CCc3c([nH]c4ccccc34)[C@@](C(=O)OC)(c3cc4c(cc3OC)N(C)[C@H]3[C@@](O)(C(=O)OC)[C@H](OC(C)=O)[C@]5(CC)C=CCN6CC[C@]43[C@@H]65)C2)C1 [Vinblastine sulfate] |  |  | 9.5 fold | 1.7 | Fold change (BMP-2) [1]: 64.00 fold |
| CC(C)=CC[C@@H](O)C1=CC(=O)c2c(O)ccc(O)c2C1=O [Shikonin] |  |  | 23.5 fold |  | fold induction at 10 µM [3]: 1.5 |
| COC(=O)Nc1nc2cc(C(=O)c3ccc(F)cc3)ccc2[nH]1 [Flubendazole] | 5.6 fold | 1.7 |  |  | Fold change (BMP-2) [1]: 10.00 fold |
| CCC(C)(C)C(=O)O[C@H]1C[C@@H](C)C=C2C=C[C@H](C)[C@H](CC[C@@H]3C[C@@H](O)CC(=O)O3)[C@H]21 [Simvastatin] |  |  | 4.2 fold |  | fold induction at 10 µM [3]: 2.3 |
| CC(=O)OC[C@H]1O[C@@H]([S-])[C@H](OC(C)=O)[C@@H](OC(C)=O)[C@@H]1OC(C)=O.CCP(CC)CC.[Au+] [Auranofin] | 309.8 fold |  |  |  | q-PCR Fold increase [3, 4]: 17.6 fold |
| CC(=O)O[C@@]12CO[C@@H]1C[C@H](O)[C@@]1(C)C(=O)[C@H](O)C3=C(C)[C@@H](OC(=O)[C@H](O)[C@@H](NC(=O)OC(C)(C)C)c4ccccc4)C[C@@](O)([C@@H](OC(=O)c4ccccc4)[C@H]21)C3(C)C [Docetaxil] |  |  | 11.0 fold |  | q-PCR Fold increase [3, 6]: 2.7 fold |
| CC[C@@]1(O)C(=O)OCc2c1cc1n(c2=O)Cc2cc3ccccc3nc2-1 [Camptothecin] | 29.0 fold | 4 |  |  |  |
| CC(=O)O[C@H]1C(=O)[C@@]2(C)[C@H]([C@H](OC(=O)c3ccccc3)[C@]3(O)C[C@H](OC(=O)[C@H](O)[C@@H](NC(=O)c4ccccc4)c4ccccc4)C(C)=C1C3(C)C)[C@]1(OC(C)=O)CO[C@@H]1C[C@@H]2O [Taxol] |  |  | 3.7 fold | 4 |  |
| CC(C)C[C@H](NC(=O)[C@H](Cc1ccccc1)NC(=O)c1cnccn1)B(O)O [Bortezomib] |  |  | 15.4 fold | 2.4 |  |
| CC(C)C(=O)Nc1ccc([N+](=O)[O-])c(C(F)(F)F)c1 [Flutamide] | 9.7 fold | 1.6 |  |  |  |
| CC[C@H](C)C(=O)O[C@H]1CCC=C2C=C[C@H](C)[C@H](CC[C@@H]3C[C@@H](O)CC(=O)O3)[C@H]21 [Mevastatin] |  |  | 3.1 fold | 0.9 |  |
| CC[C@@]1(O)C(=O)OCc2c1cc1n(c2=O)Cc2cc3cc(O)ccc3nc2-1 [10-hydroxy-camptothecin] | 30.0 fold |  |  |  | q-PCR Fold increase [3, 4]: 3.9 fold |
| COc1cc2nc(N3CCN(C(=O)c4ccco4)CC3)nc(N)c2cc1OC [Prazosin] | 6.8 fold | 4 |  |  |  |
| COC(=O)Nc1nc2ccc(Sc3ccccc3)cc2[nH]1 [Fenbendazole] | 6.6 fold | 2 |  |  |  |
| CC(C)(C)c1ccc(C(O)CCCN2CCC(C(O)(c3ccccc3)c3ccccc3)CC2)cc1 (stereo not shown) [Terfenadine] | 13.9 fold | 10.4 |  |  |  |
| CC[C@]1(O)C[C@@H]2CN(CCc3c([nH]c4ccccc34)[C@@](C(=O)OC)(c3cc4c(cc3OC)N(C)[C@H]3[C@@](O)(C(N)=O)[C@H](O)[C@]5(CC)C=CCN6CC[C@]43[C@@H]65)C2)C1 [Vindesine] |  |  | 12.4 fold | 1.8 |  |
| N=C(N)N1CCc2ccccc2C1 [Debrisoquin sulfate] | 8.2 fold | 6.2 |  |  |  |
| COCc1c(C(C)C)nc(C(C)C)c(/C=C/[C@@H](O)C[C@@H](O)CC(=O)O)c1-c1ccc(F)cc1 [Cerivastatin] |  |  | 5.3 fold | 11.9 |  |
| CCCCN1C[C@H](O)[C@@H](O)[C@H](O)[C@H]1CO [Miglustat] | 4.9 fold | 6.6 |  |  |  |
